From the NIST ThermoML archive (doi:10.1021/je700438d)

Assay: mn = molality of the nth substance listed, in mol/kg
Settings: Liquid, Vibrating tube method

[Cl-].[Li+] [lithium chloride] + CCO
mass density [kg/m3]
Settings | 373.15 K | 398.15 K
680 kPa, m1 = 0.3023 | – | 696.61
740 kPa, m1 = 0.1049 | – | 688.68
740 kPa, m1 = 2.022 | – | 758.72
960 kPa, m1 = 1.222 | – | 731.58
1010 kPa, m1 = 2.88 | – | 785.44
1020 kPa, m1 = 0.5873 | – | 708.33
4860 kPa, m1 = 1.222 | – | 737.73
5010 kPa, m1 = 0.1049 | – | 695.99
5030 kPa, m1 = 2.022 | – | 765.06
5070 kPa, m1 = 0.3023 | – | 704.02
5070 kPa, m1 = 2.88 | – | 790.37
5740 kPa, m1 = 0.5873 | – | 716.08
9680 kPa, m1 = 1.222 | – | 744.82
10060 kPa, m1 = 0.3023 | – | 711.93
10060 kPa, m1 = 0.5873 | – | 722.74
10140 kPa, m1 = 2.88 | – | 796.07
10420 kPa, m1 = 2.022 | – | 772.34
10450 kPa, m1 = 0.1049 | – | 704.75
15060 kPa, m1 = 1.222 | – | 752.07
15060 kPa, m1 = 2.022 | – | 778
15090 kPa, m1 = 0.3023 | – | 719.36
15280 kPa, m1 = 2.88 | – | 801.31
15420 kPa, m1 = 0.1049 | – | 712.2
15960 kPa, m1 = 0.5873 | – | 731.15
20010 kPa, m1 = 2.88 | – | 805.83
20090 kPa, m1 = 0.1049 | – | 718.73
20140 kPa, m1 = 0.3023 | – | 726.27
20350 kPa, m1 = 0.5873 | – | 736.9
20470 kPa, m1 = 1.222 | – | 758.65
20740 kPa, m1 = 2.022 | – | 784.18
25230 kPa, m1 = 0.3023 | – | 732.68
25320 kPa, m1 = 2.88 | – | 810.7
25420 kPa, m1 = 0.5873 | – | 742.99
25610 kPa, m1 = 2.022 | – | 788.8
25620 kPa, m1 = 1.222 | – | 764.26
25840 kPa, m1 = 0.1049 | – | 726.13
30050 kPa, m1 = 0.5873 | – | 748.05
30070 kPa, m1 = 0.3023 | – | 738.24
30070 kPa, m1 = 2.88 | – | 814.57
30090 kPa, m1 = 2.022 | – | 792.51
30150 kPa, m1 = 0.1049 | – | 731.22
30260 kPa, m1 = 0.1049 | 753.85 | –
30410 kPa, m1 = 1.222 | 789.12 | 768.9
34950 kPa, m1 = 0.5873 | – | 752.88
34980 kPa, m1 = 2.88 | – | 818
35160 kPa, m1 = 0.3023 | 764.94 | –
35240 kPa, m1 = 0.3023 | – | 743.62
35410 kPa, m1 = 2.022 | 814.8 | –
35740 kPa, m1 = 2.88 | 836.3 | –
35810 kPa, m1 = 2.022 | – | 796.49
35840 kPa, m1 = 0.1049 | 759.05 | –
35840 kPa, m1 = 1.222 | 793.28 | –
35860 kPa, m1 = 0.1049 | – | 737.37
35950 kPa, m1 = 1.222 | – | 773.57
35980 kPa, m1 = 0.5873 | 774.65 | –
39820 kPa, m1 = 1.222 | 796.01 | –
39860 kPa, m1 = 0.1049 | – | 741.26
39910 kPa, m1 = 0.1049 | 762.54 | –
39920 kPa, m1 = 0.5873 | – | 757.22
39940 kPa, m1 = 1.222 | – | 776.48
39940 kPa, m1 = 2.022 | – | 798.83
39960 kPa, m1 = 0.3023 | 768.9 | –
39970 kPa, m1 = 0.3023 | – | 748.04
39970 kPa, m1 = 0.5873 | 777.73 | –
39970 kPa, m1 = 2.022 | 817.45 | –
39980 kPa, m1 = 2.88 | 839.22 | 821.9
